The source of these data is patent EP4663191A1, “USE OF TYROSINE KINASE INHIBITOR” (Qilu Animal Health Products Co., Ltd., priority 2023, dated 2024).

For orientation: TGI means how far tumour growth fell short of that in controls. A high value points to a stronger effect on the tumour. In general, IC50 refers to the concentration that inhibits the measured activity by half. Read a low IC50 as greater potency in that assay.

The test system of series [1] is mouse mast cell tumor P815 cells. Description: In vivo efficacy in DBA/2 mouse model of subcutaneous homologous transplantation of P815 cells. The conditions noted are these: for Tumor volume (mm^3): average ±SEM; for TGI: Day 8, vs vehicle control. From the text:
Test sample: the dimaleate of the compound of formula (I) of the present application (content: 99.7%), and Toceranib phosphate (content: 98.2%, commercially available), the concentration and dosage of administration of the test sample prepared in the following implementation are all calculated in terms of free alkali.
Test animal: the species is mouse; the strain is DBA/2 mouse; the age is 6-8 weeks old, and the weight is 19-24 g; and the gender is female.
Experimental methods and steps: mouse mast cell tumor P815 cells (ATCC-TIB-64) were adherent and cultured in vitro. The culture conditions were DMEM medium, 10 vol% fetal bovine serum, 1 vol% double antibody, and cultured in a cell incubator at 37 °C with 5% CO2. Conventional digestion treatment and passage were carried out twice a week with trypsin-EDTA. When the cell saturation reached 80-90% and the quantity satisfied the requirements, the cells were collected, counted and inoculated.
0.1 mL of PBS containing 5×10^5 P815 cells was subcutaneously inoculated into the subcutaneous area of the right forelimb axilla of each mouse. At day 8 after cell inoculation, when the average tumor volume reached 100 mm^3, group administration was started. The experiment was grouped into a negative control group (without an active ingredient), an administration group, and a positive control group (with the active ingredient Toceranib), with 8 mice in each group. The negative control (vehicle), the dimaleate of the compound of formula (I), and Toceranib phosphate were administered orally once daily for an 8-day administration period. Health status and mortality of animals were monitored every day. Routine examinations included observing the effects of tumor growth and drug treatment on daily behavioral performance of animals, such as behavioral activities, food and water intake (only visually), weight changes (measuring weight twice a week), appearance signs or other abnormal conditions. Table 1. Preparation methods of the test samples
Table 2. Grouping of experimental animals and administration protocols
The experimental indicators were to examine whether the tumor growth was inhibited, delayed or cured. The diameter of the tumor was measured with a vernier caliper. The calculation formula for tumor volume was: V = 0.5a × b^2 , [formula] wherein a and b represented the long diameter and the short diameter of the tumor, respectively. The anti-tumor efficacy of the compound was determined by TGI (%). TGI (%) reflects the rate of tumor growth inhibition. Calculation of TGI (%): TGI (%) = [1-(Average tumor volume at the end of administration in a certain treatment group - Average tumor volume at the start of administration in this treatment group) / (Average tumor volume at the end of treatment in the vehicle control group - Average tumor volume at the start of treatment in the vehicle control group)] ×100%.

For series [2], the system named is mouse mast cell tumor cells P815 cells (ATCC-TIB-64). The experiment in a line: MTT assay (thiazolyl blue colorimetric assay), inhibition of tumor cell proliferation. Type of series: cell-based. As to the method: Test sample: the dimaleate of the compound of formula (I) of the present application.
The inhibition effect of the dimaleate of the compound of formula (I) on the growth of mouse mast cell tumor cells P815 cells (ATCC-TIB-64) was detected by MTT assay (thiazolyl blue colorimetric assay), and IC50 (half inhibitory concentration) was calculated and obtained.
Background: Tetrazolium assays rely on reduction of a dye to a coloured formazan, in cell work by metabolically active cells.

Another series relates to canine mast cell tumor. The experiment in a line: Anti-tumor effect in dogs with mast cell tumors (clinical cases). It is filed as in vivo. As to the method:
(§1) Since May 2021, a total of 14 dogs with mast cell tumors have been collected and enrolled for treatment with a dimaleate of the compound of formula (I). Table 4: Clinical staging criteria for canine cutaneous mast cell tumors
(§2) The affected dogs with mast cell tumor were administered with the drug of the dimaleate of the compound of formula (I) at a dose of 2.0 mg/kg to 3.25 mg/kg (all doses were calculated based on free base, the same below), orally once every other day. For affected dogs with assessable solid tumors, baseline assessment was performed before the first trial medication. After the administration of the first trial medication, mass measurement and blood routine examination were performed every 2 weeks, and blood biochemical examination and imaging examination were performed every 4 weeks to evaluate the response to tumor treatment until disease progression, intolerable drug withdrawal due to treatment-related side effects, or death of enrolled dogs, and to evaluate the efficacy and safety of the compound of formula (I) in the treatment of a canine mast cell tumor and a breast tumor. The primary observation endpoints: objective response rate (ORR), disease control rate (DCR), progression-free survival (PFS), and overall survival (OS); complete response (CR), partial response (PR), stable disease (SD), and progressive disease (PD).

A short description of series [3]: Adverse reactions and safety in dogs with mast cell tumors under treatment (VCOG-CTCAE). Type of series: in vivo. As to the method:
as §1, §2
(Adverse event assessment criteria refer to VCOG-CTCAE (Veterinary cooperative oncology group-common terminology criteria for adverse events (VCOG-CTCAE) following chemotherapy or biological antineoplastic therapy in dogs and cats v1.1. Vet Comp Oncol. 2016)).

Setting [4] is: 14 dogs, 2.0 mg/kg to 3.25 mg/kg orally once every other day, n=4.

“And” between values parts separate entries of the source, which are not always exact repeats. Equal entries are not always repeated.

In the case of `Cc1[nH]c(/C=C2\C(=O)Nc3ccc(F)cc32)c(C)c1C(=O)NCCN1CCCC1` [Toceranib, reference compound], the “Tumor volume (mm^3)” value was 100±4 mm^3 in series [1] (Day 0 after administration, 40mg/kg PO QD); 127±6 mm^3 in series [1] (Day 2 after administration, 40mg/kg PO QD); 231±14 mm^3 in series [1] (Day 4 after administration, 40mg/kg PO QD); 299±15 mm^3 in series [1] (Day 6 after administration, 40mg/kg PO QD); 510 mm^3 and 510±38 mm^3 in series [1] (Day 8 after administration, 40mg/kg PO QD, 40 mg/kg). In series [1] (40 mg/kg PO QD, p < 0.001), this compound displayed a TGI of 43.38%.
Compound `Cc1[nH]c(/C=C2\C(=O)Nc3ccc(F)cc32)c(C)c1NC(=O)CCN1CCN(C)CC1` [dimaleate of the compound of formula (I), N-(5-((Z)-(5-fluoro-2-carbonylindole-3-ylidene)methyl)-2,4-dimethyl-1H-pyrrol-3-yl)-3-(4-methylpiperazin-1-yl) propanamide] returned an IC50 in series [2] of 474 nM. In addition, the “Tumor volume (mm^3)” value in series [1] (Day 0 after administration, 20mg/kg PO QD) was 100±4 mm^3; in series [1] (Day 2 after administration, 20mg/kg PO QD) it was 141±22 mm^3; in series [1] (Day 4 after administration, 20mg/kg PO QD), 244±35 mm^3; in series [1] (Day 6 after administration, 20mg/kg PO QD) it was 319±55 mm^3; in series [1] (Day 8 after administration, 20mg/kg PO QD, listed as Compound of formula (I), 20 mg/kg) it was 483 ±93 mm^3; in series [1] (Day 8 after administration, 20mg/kg PO QD, listed as compound of formula (I), 20 mg/kg) it was 483 mm^3. Moreover, the inhibition of tumour growth (TGI) in series [1] (20 mg/kg PO QD, p = 0.003) was determined as 47.25%. In addition, the “mass decreased compared with the baseline” value in the series with canine mast cell tumor (Case 1 Golden Retriever, 3.07 mg/kg, 14 days (October 17)) worked out at 12%. Further, the “recurrence of the mass” value in the series on canine mast cell tumor (Case 1 Golden Retriever, after excision, 2.63 mg/kg, postoperative days 47, 82, 117 and 145) was “no recurrence of the mass was seen on the skin”. Moreover, the survival period entry was “greater than 176 days” with canine mast cell tumor (Case 1 Golden Retriever, as of March 28, 2022, 66 doses); “greater than 126 days” in the series on canine mast cell tumor (Case 3 Labrador, as of April 17, 2022, medication 51 times); “greater than 259 days” with canine mast cell tumor (Case 4 Golden Retriever, 2.3-2.4 mg/kg, still under therapy). This compound also displayed a total survival period in the series with canine mast cell tumor (Case 2 Tibetan mastiff, 2.84 mg/kg, died September 18, 2021) of 117 days. Further, the “mass on the cephalic side of the vulva” value in the series on canine mast cell tumor (Case 3 Labrador, 2.42 mg/kg, after 14 days, non-target lesion) is given as “significantly reduced”. In addition, in the series on canine mast cell tumor (Case 3 Labrador, day 42 and day 77 of treatment, non-target lesion), the “enlargement of the mass on the cephalic side of the vulva” value is reported as “No enlargement”. In addition, the Nasal ultrasound result was “subcutaneous mass accompanied by invasive changes in adjacent turbinate bone” in the series with canine mast cell tumor (Case 4 Golden Retriever, re-examined August 7) and “subcutaneous mass is suspected of invading the nasal cavity” in the series with canine mast cell tumor (Case 4 Golden Retriever, re-examined June 6). Moreover, in series [3] (14 dogs, 2.0 mg/kg to 3.25 mg/kg orally once every other day, n=1, occasionally), the “blood in urine (treatment-related clinical adverse reaction)” value is given as 7.1%. Moreover, the “vomiting (treatment-related clinical adverse reaction)” value in series [3] (14 dogs, 2.0 mg/kg to 3.25 mg/kg orally once every other day, n=3) is given as 21.4%. Further, in series [3] (setting [4]), the “blood in stool (treatment-related clinical adverse reaction)” value was 28.6%. In addition, the “decreased appetite (treatment-related clinical adverse reaction)” value in series [3] (setting [4]) is recorded as 28.6%. Besides, the “diarrhea (treatment-related clinical adverse reaction)” value in series [3] (14 dogs, 2.0 mg/kg to 3.25 mg/kg orally once every other day, n=9) came to 64.3%. Also, the “grade 3 or 4 adverse reactions” value in series [3] (14 dogs, VCOG-CTCAE v1.1) is “No grade 3 or 4 adverse reactions were observed”. Moreover, the “blood routine and serum biochemistry” value in series [3] (Case 2 Tibetan mastiff, 2.84 mg/kg, June 21) is reported as “no obvious abnormality was seen compared with the baseline”; in series [3] (Case 4 Golden Retriever, re-examined February 13, April 10, June 6 (August 7: blood routine only)), “no obvious abnormalities were found”. Further, the “adverse effects after administration” value in series [3] (Case 4 Golden Retriever, stage I, no c-kit mutation, 2.4 mg/kg from January 2) is reported as “no significant adverse effects were observed”. Moreover, the “adverse reactions after medication” value in series [3] (Case 4 Golden Retriever, 2.3 mg/kg from April 10 and from June 6) is “no obvious adverse reactions occurred after medication”; in series [3] (Case 5 Golden Retriever, 2.25 mg/kg from October 15), “no obvious adverse reactions occurred after medication”. Moreover, the “adverse reactions after taking the medicine” value in series [3] (Case 4 Golden Retriever, continued at 2.4mg/kg from February 13) was “symptoms of soft stool and diarrhea occurred”. Besides, in series [3] (Case 5 Golden Retriever, 2.75 mg/kg, reported at October 15), the “adverse reactions during treatment” value was “Thin and watery stools occurred during a period”. In addition, the “adverse reactions after dosing” value in series [3] (Case 5 Golden Retriever, 3.25 mg/kg from September 3) is listed as “soft stools appeared once after dosing”; in series [3] (Case 5 Golden Retriever, dosage adjusted to 2.75 mg/kg on September 7), “no significant adverse reactions after dosing”.
